Experimental data as given in a melting point compilation (Tetko et al.; mined from patent text by program, amines drawn as free bases though some values may be those of a salt).

Structure (SMILES) | melting point [°C]
O=C(c1ccccc1)C1CCN(Cc2cncc(-c3ccccc3)c2)CC1 | 91 to 93
COc1cc2c(cc1OC)C(=O)CC(C)(C)O2 | 105 to 106
C=Cc1ccc(CSC(CC(=O)O)C(=O)O)cc1 (stereo not drawn) | 173 to 175
Cc1ccc(-c2ccc(S(C)(=O)=O)cc2)n1-c1ccc(-c2ccc[nH]2)cc1 | 225 to 227
Nc1ccc(C2=NC(O)C(=O)Nc3ccc(Cl)cc32)cc1 (stereo not drawn) | > 350
CN(C)C=Nc1nc(=O)n(S(=O)(=O)c2ccc(Cl)cc2)cc1F | 207 to 210
COc1ccc(-c2cc(-c3ccc(F)cc3)ccc2C(=O)N2CCOCC2)cc1OC | 153
O=C1C(O)=C(O)C(=O)c2cc(Cl)ccc21 | 228 to 229
CC1CCCC(C(=O)c2[nH]c3cc(Cl)ccc3c2N)C1 (stereo not drawn) | 140 to 142
COc1ccc2c(c1)C(=O)c1cc(-c3nnn[nH]3)ccc1C2=O | 265 to 266
COC(=O)CCCc1cc2nc(C(F)(F)F)ccc2n1S(=O)(=O)c1cccc(OC(F)(F)F)c1 | 72
CC1CC(=O)c2cc([N+](=O)[O-])c(Br)cc2O1 (stereo not drawn) | 125 to 128
CCCCCN1C(=O)C(CCC(=O)O)(NC(=O)c2cc3ccccc3n2CCC#N)c2ccccc21 (stereo not drawn) | 125
COC(=O)[C@@](C#N)(Cc1ccc(Br)cc1)[C@H](c1ccccc1OC)c1cccc2ccccc12 (relative stereo) | 218 to 219
CCSc1cc(C)nc(SCC)c1NC(=O)CCCCCCCCSc1nc2ccccc2o1 | 84 to 87
CCCc1cc(-c2ccc(C3COC(c4c(F)cccc4F)=N3)cc2)ccc1O (stereo not drawn) | 210 to 215
CCOC(=O)c1ncn2c1cc(-c1ccccc1)c1ccccc12 | 176 to 185
CC(C)(c1ccc(OS(=O)(=O)c2ccccc2)cc1)c1ccc(OS(=O)(=O)c2ccccc2)cc1 | 92 to 93
Cn1cc(C(N)=O)c(=O)c2sc(-c3ccccc3)cc21 | 266 to 268
CCc1c(CC(=O)NCCCCCCN)ccc(OC)c1OC | 136 to 138
CC(CC(=O)Nc1c(Cl)ccc2nc(N3CCC(NCCCO)C3)ccc12)c1ccccc1 (stereo not drawn) | 155 to 158
COC(=O)c1c(OC(C)=O)cc2cc(Br)ccc2c1C | 78
O=c1[nH]cnc(C(F)(F)F)c1Cl | 191 to 192
CCCCCCC(C)(C)c1cc(OC)c(C2C(=O)[C@]3(C)CC[C@H]2C3(C)C)c(OC)c1 (stereo partly drawn) | 64 to 65
C1=C(c2cccs2)NN=C(c2cccs2)C1c1cccs1 (stereo not drawn) | 168

Structure (SMILES) | melting point [°C]
COc1ccc2nc(-c3ccc(OC)c(F)c3)cc(Cl)c2c1 | 112 to 116
CCCC[C@@H](C)C[C@@H](CC(=O)OC(C)(C)C)C(=O)O | 142 to 143
CC1(C)Oc2ccc(S(=O)(=O)Nc3ccccc3)cc2C(N2CCCCC2=O)C1O (stereo not drawn) | 272 to 276
Cc1ccn(-c2ccc(C(=O)N3Cc4cccn4Cc4ccccc43)c(F)c2)n1 | 192 to 193
C#CCCn1ncc2c(N)c(C(=O)OCC)c(C)nc21 | 101 to 103
CSc1nccc(-c2c3cccnc3n3c(N)nccc23)n1 | 223 to 224
COC(OC)c1cnc(-c2ccccc2)[nH]1 | 158 to 160
Brc1ccc2[nH]c3cnc(-c4ccon4)cc3c2c1 | 292 to 293
CCOC(=O)c1sc(-n2c(=O)n(Cc3ccc(F)cc3)c3ccccc32)nc1C | 192 to 193
CN1CC(c2cccc(OCc3ccc4ccccc4n3)c2)OC1=O (stereo not drawn) | 75 to 77
CCCCCCNC(=O)OCCCCCCCCCCCCNC(=O)OC1CCN(C(=O)O)CC1 | 98 to 100
CCCc1c(O)c(C(C)=O)cc(Cl)c1OCCCOc1c(C(C)=O)ccc(OCC(=O)O)c1CCC | 119 to 121
CCN1C(C(=O)OC)=C(O)c2ccc3ccccc3c2S1(=O)=O | 179
O=C(Nc1ccc(C2=NOC(c3cc(Cl)cc(Cl)c3)(C(F)(F)F)C2)cc1)C(F)(F)F (stereo not drawn) | 45 to 52
COC(=O)[C@@H]1NC(=O)[C@@H]1NC(=O)COc1ccccc1 (relative stereo) | 140 to 141
C=CCNC(=S)NC(=O)c1ccccc1 | 68 to 69
CCOC(=O)c1oc(C)c(O)c1O | 120 to 121
CC(C)(C)c1ccc2nc(N3CCN(c4ncccc4C(F)(F)F)CC3)[nH]c2c1 | 247 to 249
O=C(O)CCCc1cccc(NC(=O)[C@@H](CS)Cc2ccccc2)c1 | 149 to 152
COc1cc(Nc2nccc(-c3ccc(NC4CCN(Cc5ccccc5)CC4)nc3)n2)cc(OC)c1OC | 113 to 114
COc1cc2cc3ncc(C#N)c(Nc4ccc(Oc5ccccc5)c(Cl)c4)c3cc2cc1OCCN1CCOCC1 | 251 to 253
CCc1nc2c(C)cc(C)nc2n1Cc1ccc(C(c2ccccc2)C(Br)C(=O)O)cc1 (stereo not drawn) | 117 to 126
Cc1c(NC(=O)CC(C)(C)C)c(C)c2c(c1-c1ccncc1)OCC2c1ccc(C(C)C)cc1 (stereo not drawn) | 150 to 152
CC(C)Cn1c(CNC(=O)OC(C)(C)C)c(-c2ccccc2F)c2cc(OCc3ccccc3)ccc2c1=O | 138 to 139
Cc1noc(NS(=O)(=O)c2c(Cc3ccc4c(c3)OCO4)sc3ccccc23)c1Cl | 178 to 181

Structure (SMILES) | melting point [°C]
NC[C@@H]1C[C@@H](SC(c2ccccc2)(c2ccccc2)c2ccccc2)CN1S(=O)(=O)c1ccc2ccccc2c1 | 88 to 89
CC1(C)COP(=O)(O)OC1c1ccc2ccccc2c1 (stereo not drawn) | 237 to 238
Cn1c(CCN2CCN(c3ccc(Cl)cc3)CC2)nc2ccc3ccccc3c21 | 213 to 215
CCOC(=O)COc1ccc(NC(=O)c2ccc(C(C)(C)C)cc2)cc1 | 119 to 122
CCN1C(=O)N(c2c(F)c(OC)cc(OC)c2F)Cc2cnc(SC)nc21 | 165 to 168
COc1cc2c(cc1OC)-c1c(C#N)sc(=S)n1CC2 | 228
CS(=O)(=O)c1ccc(C=Cc2ccc(NCCCCCCO)cc2)cc1 | 113 to 115
CCC(CC)C(NS(=O)(=O)c1ccc(Cl)s1)c1ncnn1Cc1ccc(OC)cc1 (stereo not drawn) | 136 to 137
COc1ccc(C=Cc2ccc3cccc(O)c3n2)cc1 | 108 to 110
CC(C)(C)c1cc(C(=O)Nc2cccc(SCc3cncc4ccccc34)c2)ccc1O | 205 to 210
N#Cc1onc(-c2ccccc2)c1-c1ccc(S(N)(=O)=O)cc1 | 218 to 219
Cc1c(C=O)cc2c(c1C)OCC2 | 60
CC(C)(C)[Si](C)(C)Oc1ccc2c(c1)OC(O)c1c-2sc2cc(O[Si](C)(C)C(C)(C)C)ccc12 (stereo not drawn) | 162 to 164
Nc1cccc(-c2ccc(CCN3CCN(c4nnnn4-c4ccc(F)cc4)CC3)cc2)n1 | 185 to 187
CCOC(=O)CN(C)C(=O)CCN(C(=O)c1ccc(Cl)cc1)c1ccc(OC)cc1 | 104 to 106
CNC(=S)C1=CC(C)(C)Oc2ccc([N+](=O)[O-])cc21 | 147 to 148
c1nc(-c2ccc(CN3CCCCCC3)s2)n[nH]1 | 129 to 130
COc1cccc(NC(=O)C(N)=S)c1 | 135
COC(=O)C1Cc2ccccc2N1C(=O)C(C)(C)CSC(C)=O (stereo not drawn) | 136 to 138
COC(=O)Nc1nc2ccc(Sc3ccccc3)cn2c1CN(C)C | 172 to 175
CC(=O)Nc1cc(C(=O)c2ccccc2)ccc1[N+](=O)[O-] | 97.8
COc1cc2c(cc1OC)[C@@H]1CN(C)CC[C@@H]1N=C2c1ccc(NC(=O)C(C)(C)C)cc1 (relative stereo) | 245
CSc1cc(S(F)(F)(F)(F)F)ccc1C#N | 101 to 102
O=C(O)CCCCC(=O)c1ccc2cc(O)ccc2c1 | 191 to 193
O=[N+]([O-])c1cc(CBr)cc(CBr)c1 | 100 to 101

Structure (SMILES) | melting point [°C]
Cc1ccc(S(=O)(=O)OC[C@H]2CC[C@@H](COS(=O)(=O)c3ccc(C)cc3)O2)cc1 | 125 to 126
Cc1cc(-c2cc(C(F)F)n3ncc(C(=O)Nc4nc(C)c(S(N)(=O)=O)s4)c3n2)ccc1C(F)(F)F | 307
COc1cc(OC)nc(C2OC(=O)c3ncccc32)n1 (stereo not drawn) | 167 to 168
CCCCCC(C)N(Cc1ccc(OCCC(C)C)cc1)C(Nc1ccc(OC)cc1OC)=C1C(=O)COC1=O (stereo not drawn) | 125 to 127
COC(=O)c1sc2cc(CCl)ccc2c1C | 128 to 129
CC(C)OC(=O)c1cc2c3ccccc3n(Cc3ccccc3)c2s1 | 88 to 89
CCOC(=O)c1c(Cn2cncn2)nc2sc3cnccc3c2c1-c1ccc(OC)c(OC)c1 | 172 to 174
CSCC(O)COc1cccc2oc(C(=O)O)cc(=O)c12 (stereo not drawn) | 76 to 79
Cc1c(-c2ccncc2)[nH]c(-c2ccncc2)c1C(=O)OCc1ccccc1 | 204 to 205
Nc1nc(-n2cc(C(=O)O)c(=O)c3c(N)c(F)c(F)c(Cl)c32)c(F)cc1F | 280
CN1CC(=O)NC1=NC(=O)Nc1cccc(Cl)c1 | 180
CC(C)(C)n1cc(-c2ccc(S(=O)(=O)c3ccccc3)cc2)c2c(N)ncnc21 | 222 to 224
COCc1cnc2c(N)cccc2c1Cl | 107
O=Cc1ccc(OS(=O)(=O)C(F)(F)F)c2ccccc12 | 44 to 47
CCCC1=C(C(=O)OCC)C(c2ccccc2Cl)c2cnn(C(=O)OC(C)(C)C)c2N1 (stereo not drawn) | 112 to 116
CC(CO)C1CCC2C3CCC4=C(N)C(=O)CCC4(C)C3CCC12C (stereo not drawn) | 180 to 185
O=C1C(Cl)=C(Cl)C(=O)c2ncccc21 | 221 to 222
Cc1cccc(Nc2cc(-c3c(-c4cccc(C)c4)nc4cccnn34)ccn2)c1 | 195 to 196
Cc1cc(-n2ccnc2)ccc1[N+](=O)[O-] | 138 to 140
NS(=O)(=O)Oc1ccccc1Cl | 62.5 to 63.5
CC(=O)NC[C@H]1CN(c2ccc(C3CCN(C(=O)COCc4ccccc4)CC3)c(F)c2)C(=O)O1 | 147 to 149
CC(C)(CNC(=O)/C(CCO)=C(\c1ccc(Cl)cc1)c1ccc(S(C)(=O)=O)cc1)SN=O | 150 to 153
CC(C)(C)C1C(O)=C(C2=NS(=O)(=O)c3c(NS(C)(=O)=O)cccc32)C(=O)N1Cc1ccc(F)cc1 (stereo not drawn) | 245 to 250
